Data published in patent US10100010B1, “4-methoxy pyrrole derivatives or salts thereof and pharmaceutical composition comprising the same” (Daewoong Pharmaceutical Co., Ltd., priority 2015, dated 2018).
Counter-ions that a name gives are not always drawn. Like-named read-outs stand apart in the source and are kept apart here.

Experiments:
Type in all cases: cell-based
[1] = target: 5-HT2A (Homo sapiens, UniProt P28223); experiment: GPCR Calcium Flux assay (FLIPR tetra, Eurofins), 5-HT2A; details: for IC50: 8 concentrations 10 to 0.0006 uM, read-out: 50% inhibitory concentration (IC50) 5-HT2A; for inhibition at 10 µM: read-out: inhibition rate (%) 5-HT2A
Protocol: (§1) In order to confirm whether the compounds prepared in the above Examples act as an agonist or antagonist against GPCR Target, Calcium Flux assay was performed in an assay plate in which the compounds prepared in the Examples, vehicle controls, and reference compounds were added, using a Fluorometric imaging plate reader (FLIPR tetra) equipment.
(§2) Calcium Flux assay was evaluated by entrusting the GPCR profiler assay in Safety panel assays with Eurofins. By using the Fluo-8AM calcium dye, excitation was measured at a wavelength in the range of 470 to 495 nm and Emission was measured at a wavelength in the range of 515-575 nm. GPCR Assay Buffer for Calcium Flux assay was prepared by adding 20 mM of HEPES and 2.5 mM of Probenecid to Hanks Balanced Salt Solution (HBSS) to have pH 7.4. The Compounds of Examples for evaluation of the GPCR were diluted with DMSO at a concentration of 10 mM to make a stock and then prepared by diluting in the GPCR Assay Buffer at the concentration equivalent to three times the final concentration. First, for the evaluation of GPCRs, the inhibitory activity of the compounds of the Examples was evaluated at a single concentration of 10 uM, and then the respective selected targets were four fold-diluted from 10 uM to the low side to calculate 50% inhibitory concentration (IC50), prepared at the total 8 concentrations of 10, 2.5, 0.62, 0.15, 0.04, 0.01, 0.0024, 0.0006 uM, and Calcium Flux assay for GPCR was conducted. In order to evaluate the agonist and antagonist, % inhibition rate against GPCR activity before and after treatment of the compounds and the inhibitory activity of the compounds of the Examples were determined.
(§3) As a result, when the efficacy of […] and acetylcholine of the compounds prepared in the Examples was 100%, the inhibition rate (%) at a single concentration of 10 uM was evaluated and shown in Table 8.

[2] = target: T1, M2 (Homo sapiens, UniProt P08172); experiment: GPCR Calcium Flux assay (FLIPR tetra, Eurofins), M2; details: for inhibition at 10 µM: read-out: inhibition rate (%) M2; for IC50: 8 concentrations 10 to 0.0006 uM, read-out: 50% inhibitory concentration (IC50) M2
T1 sequence (P08172 1-466): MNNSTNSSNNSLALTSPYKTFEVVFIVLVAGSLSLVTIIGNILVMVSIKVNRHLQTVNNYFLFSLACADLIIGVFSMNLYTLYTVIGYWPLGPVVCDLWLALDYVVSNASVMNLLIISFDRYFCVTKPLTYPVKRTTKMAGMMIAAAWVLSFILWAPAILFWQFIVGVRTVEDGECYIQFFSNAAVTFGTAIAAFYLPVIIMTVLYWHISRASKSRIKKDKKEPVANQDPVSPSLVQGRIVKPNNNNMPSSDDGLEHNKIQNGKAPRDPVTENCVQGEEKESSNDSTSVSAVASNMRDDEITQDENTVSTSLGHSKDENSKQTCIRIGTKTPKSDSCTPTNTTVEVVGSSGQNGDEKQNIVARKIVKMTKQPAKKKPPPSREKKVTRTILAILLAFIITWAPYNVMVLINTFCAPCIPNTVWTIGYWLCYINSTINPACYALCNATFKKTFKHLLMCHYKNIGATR
Protocol: as §1, §2, §3

[3] = target: T2, M1 (Homo sapiens, UniProt P11229); experiment: GPCR Calcium Flux assay (FLIPR tetra, Eurofins), M1; details: for IC50: 8 concentrations 10 to 0.0006 uM, read-out: 50% inhibitory concentration (IC50) M1; for inhibition at 10 µM: read-out: inhibition rate (%) M1
T2 sequence (P11229 1-460): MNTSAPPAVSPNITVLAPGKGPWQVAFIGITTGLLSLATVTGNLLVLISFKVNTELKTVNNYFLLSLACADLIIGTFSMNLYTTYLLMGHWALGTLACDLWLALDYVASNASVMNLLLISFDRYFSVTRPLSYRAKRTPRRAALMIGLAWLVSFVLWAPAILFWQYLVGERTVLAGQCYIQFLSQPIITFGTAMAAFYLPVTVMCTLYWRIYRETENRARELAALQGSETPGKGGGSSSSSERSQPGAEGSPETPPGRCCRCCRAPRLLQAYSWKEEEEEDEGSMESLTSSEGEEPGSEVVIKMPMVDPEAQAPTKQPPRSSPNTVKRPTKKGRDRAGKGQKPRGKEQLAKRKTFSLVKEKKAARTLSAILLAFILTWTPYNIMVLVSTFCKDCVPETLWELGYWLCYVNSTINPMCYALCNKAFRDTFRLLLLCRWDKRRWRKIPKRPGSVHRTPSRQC
Protocol: as §1, §2, §3

Chain of 5-HT2A (P28223 whole entry): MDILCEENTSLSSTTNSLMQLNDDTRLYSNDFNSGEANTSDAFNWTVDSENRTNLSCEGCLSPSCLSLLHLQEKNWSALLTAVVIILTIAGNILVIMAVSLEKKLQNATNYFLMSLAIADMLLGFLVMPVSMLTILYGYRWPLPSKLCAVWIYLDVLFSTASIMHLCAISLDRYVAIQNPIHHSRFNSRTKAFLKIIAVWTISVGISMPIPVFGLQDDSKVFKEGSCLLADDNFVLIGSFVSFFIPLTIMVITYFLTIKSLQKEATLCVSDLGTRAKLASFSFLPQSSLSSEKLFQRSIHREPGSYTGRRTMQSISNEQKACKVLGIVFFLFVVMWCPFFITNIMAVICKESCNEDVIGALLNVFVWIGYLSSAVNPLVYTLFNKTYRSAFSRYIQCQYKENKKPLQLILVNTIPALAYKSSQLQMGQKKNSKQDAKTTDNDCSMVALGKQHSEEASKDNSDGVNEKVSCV

Row | SMILES | IC50 [1] | inhibition at 10 µM [1] | inhibition at 10 µM [2] | IC50 [3] | inhibition at 10 µM [3] | inhibition at 10 µM ([1]; single concentration of 10 uM) | inhibition at 10 µM ([2]; single concentration of 10 uM) | inhibition at 10 µM ([3]; single concentration of 10 uM) | IC50 [2]
1 | CNCc1cn(S(=O)(=O)c2cccc(C)c2)c(-c2c(F)cccc2F)c1OC [Example 16, 1-(5-(2,6-difluorophenyl)-1-((3-methylphenyl)sulfonyl)-4-methoxy-1H-pyrrol-3-yl)-N-methylmethanamine fumarate] | 58 nM | 102% | 69.7% | 1900 nM | 95.4% | – | – | – | –
2 | CNCc1cn(S(=O)(=O)c2cccc(OC)c2)c(-c2ccc(F)cc2F)c1OC [Example 11, 1-(5-(2,4-difluorophenyl)-1-((3-methoxyphenyl)sulfonyl)-4-methoxy-1H-pyrrol-3-yl)-N-methylmethanamine hydrochloride] | 200 nM | – | – | 1800 nM | – | 102% | 79.4% | 97.2% | –
3 | CNCc1cn(S(=O)(=O)c2cccc(C)c2)c(-c2ccc(F)cc2F)c1OC [Example 10, 1-(5-(2,4-difluorophenyl)-1-((3-methylphenyl)sulfonyl)-4-methoxy-1H-pyrrol-3-yl)-N-methylmethanamine hydrochloride] | 360 nM | – | – | 1300 nM | – | 101% | 77.6% | 96.2% | –
4 | CNCc1cn(S(=O)(=O)c2ccc(F)c(F)c2)c(-c2c(F)cc(F)cc2F)c1OC [Example 26, 1-(1-((3,4-difluorophenyl)sulfonyl)-4-methoxy-5-(2,4,6-trifluorophenyl)-1H-pyrrol-3-yl)-N-methylmethanamine hydrochloride] | – | – | – | – | – | 99% | 89.2% | 101% | –
5 | CNCc1cn(S(=O)(=O)c2cccc(C(F)(F)F)c2)c(-c2ccc(F)cc2F)c1OC [Example 9, 1-(5-(2,4-difluorophenyl)-1-((3-(trifluoromethyl)phenyl)sulfonyl)-4-methoxy-1H-pyrrol-3-yl)-N-methylmethanamine hydrochloride] | – | – | – | – | – | 61.1% | 18.3% | 74.7% | –
6 | CNCc1cn(S(=O)(=O)c2cccc(F)c2)c(-c2cc(F)ccc2F)c1OC [Example 31, 1-(5-(2,5-difluorophenyl)-1-((3-fluorophenyl)sulfonyl)-4-methoxy-1H-pyrrol-3-yl)-N-methylmethanamine hydrochloride] | 42 nM | – | – | 73 nM | – | 101% | 98.6% | 100% | –
7 | CNCc1cn(S(=O)(=O)c2cccc(C(F)(F)F)c2)c(-c2c(F)cc(F)cc2F)c1OC [Example 24, 1-(1-((3-trifluoromethylphenyl)sulfonyl)-4-methoxy-5-(2,4,6-trifluorophenyl)-1H-pyrrol-3-yl)-N-methylmethanamine hydrochloride] | 62 nM | – | – | > 1000 nM | – | 62.2% | 22% | 93.4% | > 10000 nM
8 | CNCc1cn(S(=O)(=O)c2cccc(OC)c2)c(-c2ccccc2F)c1OC [Example 3, 1-(5-(2-fluorophenyl)-4-methoxy-1-((3-methoxyphenyl)sulfonyl)-1H-pyrrol-3-yl)-N-methylmethanamine hydrochloride] | 180 nM | – | – | – | – | 94% | 76.9% | 87% | –
9 | CNCc1cn(S(=O)(=O)c2cccc(OC)c2)c(-c2c(F)cccc2F)c1OC [Example 17, 1-(5-(2,6-difluorophenyl)-1-((3-methoxyphenyl)sulfonyl)-4-methoxy-1H-pyrrol-3-yl)-N-methylmethanamine hydrochloride] | 2200 nM | – | – | – | – | 102% | 60.1% | 85.2% | –
10 | CNCc1cn(S(=O)(=O)c2cccc(OC)c2)c(-c2c(F)ccc(F)c2F)c1OC [Example 30, 1-(1-((3-methoxyphenyl)sulfonyl)-4-methoxy-5-(2,3,6-trifluorophenyl)-1H-pyrrol-3-yl)-N-methylmethanamine hydrochloride] | – | – | – | 1400 nM | – | 100% | 43% | 94.3% | –
11 | CNCc1cn(S(=O)(=O)c2cccc(OC)c2)c(-c2cc(F)ccc2F)c1OC [Example 33, 1-(5-(2,5-difluorophenyl)-1-((3-methoxyphenyl)sulfonyl)-4-methoxy-1H-pyrrol-3-yl)-N-methylmethanamine hydrochloride] | 1700 nM | – | – | – | – | 96.7% | 29% | 81.5% | –
12 | CNCc1cn(S(=O)(=O)c2ccc(F)c(Cl)c2)c(-c2c(F)cccc2F)c1OC [Example 18, 1-(5-(2,6-difluorophenyl)-1-((3-chloro-4-fluorophenyl)sulfonyl)-4-methoxy-1H-pyrrol-3-yl)-N-methylmethanamine hydrochloride] | 210 nM | – | – | ~2100 nM | – | 98.1% | 42.1% | 91.2% | –
13 | CNCc1cn(S(=O)(=O)c2cccc(C(F)(F)F)c2)c(-c2c(F)cccc2F)c1OC [Example 15, 1-(5-(2,6-difluorophenyl)-1-((3-(trifluoromethyl)phenyl)sulfonyl)-4-methoxy-1H-pyrrol-3-yl)-N-methylmethanamine hydrochloride] | – | – | – | – | – | 30.1% | 62.1% | 87.1% | –
14 | CNCc1cn(S(=O)(=O)c2cccc(F)c2)c(-c2c(F)cccc2F)c1OC [Example 13, 1-(5-(2,6-difluorophenyl)-1-((3-fluorophenyl)sulfonyl)-4-methoxy-1H-pyrrol-3-yl)-N-methylmethanamine hydrochloride] | 76 nM | – | – | 110 nM | – | 102% | 99.4% | 100% | 510 nM
15 | CNCc1cn(S(=O)(=O)c2cccc(C(F)(F)F)c2)c(-c2c(F)ccc(F)c2F)c1OC [Example 29, 1-(1-((3-trifluoromethylphenyl)sulfonyl)-4-methoxy-5-(2,3,6-trifluorophenyl)-1H-pyrrol-3-yl)-N-methylmethanamine hydrochloride] | – | – | – | – | – | 35.7% | 19.4% | 68.4% | –
16 | CNCc1cn(S(=O)(=O)c2cccc(OC(F)F)c2)c(-c2ccccc2F)c1OC [Example 4, 1-(5-(2-fluorophenyl)-4-methoxy-1-((3-difluoromethoxyphenyl)sulfonyl)-1H-pyrrol-3-yl)-N-methylmethanamine hydrochloride] | 850 nM | – | – | – | – | 96% | 22% | 55.8% | –
17 | CNCc1cn(S(=O)(=O)c2cccc(OC(F)F)c2)c(-c2ccc(F)cc2F)c1OC [Example 12, 1-(5-(2,4-difluorophenyl)-1-((3-difluoromethoxyphenyl)sulfonyl)-4-methoxy-1H-pyrrol-3-yl)-N-methylmethanamine hydrochloride] | – | – | – | – | – | 101% | 28.7% | 93.1% | –
